Assay results reported in US20150376172A1, “FLUORO-[1,3]OXAZINES AS BACE1 INHIBITORS” (HOFFMANN-LA ROCHE INC., priority 2013, published 2015).
pIC50: −log10 of the molar value. Where a name gives a salt, the structure may show the parent alone.

biological target: T1, BACE1 (Homo sapiens, UniProt P56817); test: Cellular Aβ-lowering assay (Abeta 40 AlphaLISA); assay type: cell-based; conditions: HEK293 APP cells; 18-20 hrs incubation; Aβ 40 in culture supernatants by AlphaLISA; read-out: BACE1 cell act. Aβ40 IC50
T1 construct: endogenous in cells; host or cells: HEK293 APP cells
T1 sequence (P56817 46-501): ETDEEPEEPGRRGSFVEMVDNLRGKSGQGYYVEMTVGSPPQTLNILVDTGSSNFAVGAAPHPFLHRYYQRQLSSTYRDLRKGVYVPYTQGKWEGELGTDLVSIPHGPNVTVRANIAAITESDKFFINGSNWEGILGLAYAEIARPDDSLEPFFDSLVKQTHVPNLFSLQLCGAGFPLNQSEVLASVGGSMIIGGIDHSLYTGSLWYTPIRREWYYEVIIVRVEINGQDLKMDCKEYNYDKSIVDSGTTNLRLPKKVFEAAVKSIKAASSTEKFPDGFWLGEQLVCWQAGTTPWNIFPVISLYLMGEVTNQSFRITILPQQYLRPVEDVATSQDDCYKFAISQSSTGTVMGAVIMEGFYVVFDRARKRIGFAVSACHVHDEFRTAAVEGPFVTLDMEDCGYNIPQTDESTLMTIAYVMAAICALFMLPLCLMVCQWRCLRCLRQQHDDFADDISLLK
Protocol: Cellular Aβ-lowering assay:
The Abeta 40 AlphaLISA Assay can be used. The HEK293 APP cells were seeded in 96 well Microtiter plates in cell culture medium (Iscove's, plus 10% (v/v) fetal bovine serum, penicillin/streptomycin) to about 80% confluency and the compounds were added at a 3× concentration in ⅓ volume of culture medium (final DMSO concentration was kept at 1% v/v). After 18-20 hrs incubation at 37° C. and 5% CO2 in a humidified incubator, the culture supernatants were harvested for the determination of Aβ 40 concentrations using Perkin-Elmer Human Amyloid beta 1-40 (high specificity) Kit (Cat#AL275C).
In a Perkin-Elmer White Optiplate-384 (Cat#6007290), 2 ul culture supernatants were combined with 2 μl of a 10× AlphaLISA Anti-hAβAcceptor beads+Biotinylated Antibody Anti-Aβ1-40 Mix (50 μg/mL/5 nM). After 1 hour room temperature incubation, 16 μl of a 1.25× preparation of Streptavidin (SA) Donor beads (25 μg/mL) were added and incubated for 30 minutes in the Dark. Light Emission at 615 nm was then recorded using EnVision-Alpha Reader. Levels of Aβ 40 in the culture supernatants were calculated as percentage of maximum signal (cells treated with 1% DMSO without inhibitor). The IC50 values were calculated using the Excel XLfit software.

Q: With `C[C@@]1(c2cc(-c3cncc(Cl)c3)ccc2F)C[C@@H](C(F)(F)F)OC(N)=N1` [Example 13, (4S,6S)-4-(5-(5-Chloropyridin-3-yl)-2-fluorophenyl)-4-methyl-6-(trifluoromethyl)-5,6-dihydro-4H-1,3-oxazin-2-amine] as the compound, how does the pIC50 read?
A: The pIC50 was 6.82.

Q: With `CC#Cc1cncc(-c2ccc(F)c([C@]3(C)C[C@@H](C(F)(F)F)OC(N)=N3)c2)c1` [Example 14, (4S,6S)-4-(2-Fluoro-5-(5-(prop-1-ynyl)pyridin-3-yl)phenyl)-4-methyl-6-(trifluoromethyl)-5,6-dihydro-4H-1,3-oxazin-2-amine] as the compound, how does the pIC50 read?
A: The pIC50 was 6.60.

Q: `C[C@@]1(c2cc(-c3cncc(Cl)n3)ccc2F)C[C@@H](C(F)(F)F)OC(N)=N1` [Example 15, (4S,6S)-4-(5-(6-Chloropyrazin-2-yl)-2-fluorophenyl)-4-methyl-6-(trifluoromethyl)-5,6-dihydro-4H-1,3-oxazin-2-amine] was tested. Which pIC50 did it give?
A: The pIC50 was 6.02.

Q: With `C[C@@]1(c2cc(-c3cnn(C(F)F)c3)ccc2F)C[C@@H](C(F)(F)F)OC(N)=N1` [Example 16, (4S,6S)-4-(5-(1-(Difluoromethyl)-1H-pyrazol-4-yl)-2-fluorophenyl)-4-methyl-6-(trifluoromethyl)-5,6-dihydro-4H-1,3-oxazin-2-amine] as the compound, how does the pIC50 read?
A: The pIC50 was 5.96.

Q: How did the pIC50 turn out when `C[C@@]1(c2cc(-c3cncnc3)c(F)cc2F)C[C@@H](C(F)(F)F)OC(N)=N1` [Example 17, (4S,6S)-4-(2,4-Difluoro-5-(pyrimidin-5-yl)phenyl)-4-methyl-6-(trifluoromethyl)-5,6-dihydro-4H-1,3-oxazin-2-amine] was run?
A: Its pIC50 is 6.72.

Q: `C[C@@]1(c2cc(-c3cccnc3F)c(F)cc2F)C[C@@H](C(F)(F)F)OC(N)=N1` [Example 18, (4S,6S)-4-(2,4-Difluoro-5-(2-fluoropyridin-3-yl)phenyl)-4-methyl-6-(trifluoro-methyl)-5,6-dihydro-4H-1,3-oxazin-2-amine] was tested. Which pIC50 did it give?
A: The pIC50 was 6.92.

Q: How did the pIC50 turn out when `CC#Cc1cncc(-c2cc([C@]3(C)C[C@@H](C(F)(F)F)OC(N)=N3)c(F)cc2F)c1` [Example 19, (4S,6S)-4-(2,4-Difluoro-5-(5-(prop-1-ynyl)pyridin-3-yl)phenyl)-4-methyl-6-(trifluoromethyl)-5,6-dihydro-4H-1,3-oxazin-2-amine] was run?
A: The pIC50 was 6.24.

Q: `C[C@@]1(c2cc(C#Cc3ccnc(Cl)c3)ccc2F)C[C@@H](C(F)(F)F)OC(N)=N1` [Example 20, (4S,6S)-4-(5-((2-Chloropyridin-4-yl)ethynyl)-2-fluorophenyl)-4-methyl-6-(trifluoromethyl)-5,6-dihydro-4H-1,3-oxazin-2-amine] was tested. Which pIC50 did it give?
A: The pIC50 was 6.60.

Q: How did the pIC50 turn out when `C[C@@]1(c2cc(C#Cc3ccc(C#N)cn3)ccc2F)C[C@@H](C(F)(F)F)OC(N)=N1` [Example 21, 6-((3-((4S,6S)-2-Amino-4-methyl-6-(trifluoromethyl)-5,6-dihydro-4H-1,3-oxazin-4-yl)-4-fluorophenyl)ethynyl)nicotinonitrile] was run?
A: Its pIC50 is 7.23.

Q: With `C[C@@]1(c2cc(C#Cc3cccnc3)ccc2F)C[C@@H](C(F)(F)F)OC(N)=N1` [Example 22, (4S,6S)-4-(2-Fluoro-5-(pyridin-3-ylethynyl)phenyl)-4-methyl-6-(trifluoromethyl)-5,6-dihydro-4H-1,3-oxazin-2-amine] as the compound, how does the pIC50 read?
A: Its pIC50 is 6.33.

Q: With `C[C@@]1(c2cc(C#Cc3ncc(Cl)cn3)ccc2F)C[C@@H](C(F)(F)F)OC(N)=N1` [Example 23, (4S,6S)-4-(5-((5-Chloropyrimidin-2-yl)ethynyl)-2-fluorophenyl)-4-methyl-6-(trifluoromethyl)-5,6-dihydro-4H-1,3-oxazin-2-amine] as the compound, how does the pIC50 read?
A: Its pIC50 is 7.11.

Q: How did the pIC50 turn out when `COc1cnc(C#Cc2ccc(F)c([C@]3(C)C[C@@H](C(F)(F)F)OC(N)=N3)c2)nc1` [Example 24, (4S,6S)-4-(2-Fluoro-5-((5-methoxypyrimidin-2-yl)ethynyl)phenyl)-4-methyl-6-(trifluoromethyl)-5,6-dihydro-4H-1,3-oxazin-2-amine] was run?
A: The pIC50 was 5.78.

Q: With `COc1cnc(C#Cc2ccc(F)c([C@]3(C)C[C@@H](C(F)(F)F)OC(N)=N3)c2)cn1` [Example 25, (4S,6S)-4-(2-Fluoro-5-((5-methoxypyrazin-2-yl)ethynyl)phenyl)-4-methyl-6-(trifluoromethyl)-5,6-dihydro-4H-1,3-oxazin-2-amine] as the compound, how does the pIC50 read?
A: The pIC50 was 5.89.

Q: How did the pIC50 turn out when `C[C@@]1(c2cc(-c3cncc(C#N)c3)cs2)C[C@@H](C(F)(F)F)OC(N)=N1` [Example 26, 5-(5-((4S,6S)-2-Amino-4-methyl-6-(trifluoromethyl)-5,6-dihydro-4H-1,3-oxazin-4-yl)thiophen-3-yl)nicotinonitrile Hydrochloride] was run?
A: The pIC50 was 6.15.

Q: `C[C@@]1(c2cc(-c3cccnc3F)cs2)C[C@@H](C(F)(F)F)OC(N)=N1` [Example 27, (4S,6S)-4-(4-(2-Fluoropyridin-3-yl)thiophen-2-yl)-4-methyl-6-(trifluoromethyl)-5,6-dihydro-4H-1,3-oxazin-2-amine Hydrochloride] was tested. Which pIC50 did it give?
A: Its pIC50 is 5.86.

Q: With `C[C@@]1(c2cc(-c3cccc(C(F)(F)F)c3)cs2)C[C@@H](C(F)(F)F)OC(N)=N1` [Example 28, (4S,6S)-4-Methyl-6-(trifluoromethyl)-4-(4-(3-(trifluoromethyl)phenyl)thiophen-2-yl)-5,6-dihydro-4H-1,3-oxazin-2-amine] as the compound, how does the pIC50 read?
A: The pIC50 was 6.48.

Q: With `CC#Cc1cncc(-c2csc([C@]3(C)C[C@@H](C(F)(F)F)OC(N)=N3)c2)c1` [Example 29, (4S,6S)-4-Methyl-4-(4-(5-(prop-1-ynyl)pyridin-3-yl)thiophen-2-yl)-6-(trifluoromethyl)-5,6-dihydro-4H-1,3-oxazin-2-amine Hydrochloride] as the compound, how does the pIC50 read?
A: The pIC50 was 6.51.

Q: With `CC#Cc1cncc(-c2cc(Cl)c([C@]3(C)C[C@@H](C(F)(F)F)OC(N)=N3)s2)c1` [Example 30, (4S,6S)-4-(3-Chloro-5-(5-(prop-1-ynyl)pyridin-3-yl)thiophen-2-yl)-4-methyl-6-(trifluoromethyl)-5,6-dihydro-4H-1,3-oxazin-2-amine] as the compound, how does the pIC50 read?
A: Its pIC50 is 6.21.

Q: `C[C@@]1(c2sc(-c3cncc(C#N)c3)cc2Cl)C[C@@H](C(F)(F)F)OC(N)=N1` [Example 31, 5-(5-((4S,6S)-2-Amino-4-methyl-6-(trifluoromethyl)-5,6-dihydro-4H-1,3-oxazin-4-yl)-4-chlorothiophen-2-yl)nicotinonitrile] was tested. Which pIC50 did it give?
A: Its pIC50 is 6.47.

Q: With `C[C@@]1(c2sc(-c3cncc(Cl)c3)cc2Cl)C[C@@H](C(F)(F)F)OC(N)=N1` [Example 32, (4S,6S)-4-(3-Chloro-5-(5-chloropyridin-3-yl)thiophen-2-yl)-4-methyl-6-(trifluoromethyl)-5,6-dihydro-4H-1,3-oxazin-2-amine] as the compound, how does the pIC50 read?
A: Its pIC50 is 6.13.

Q: With `C[C@@]1(c2sc(-c3cccc(C#N)c3)cc2Cl)C[C@@H](C(F)(F)F)OC(N)=N1` [Example 33, 3-(5-((4S,6S)-2-Amino-4-methyl-6-(trifluoromethyl)-5,6-dihydro-4H-1,3-oxazin-4-yl)-4-chlorothiophen-2-yl)benzonitrile] as the compound, how does the pIC50 read?
A: The pIC50 was 6.29.

Q: How did the pIC50 turn out when `C[C@@]1(c2cc(NC(=O)c3ccc(Cl)cn3)cs2)C[C@@H](C(F)(F)F)OC(N)=N1` [Example 34, N-(5-((4S,6S)-2-amino-4-methyl-6-(trifluoromethyl)-5,6-dihydro-4H-1,3-oxazin-4-yl)thiophen-3-yl)-5-chloropicolinamide] was run?
A: The pIC50 was 6.48.

Q: How did the pIC50 turn out when `C[C@@]1(c2cc(NC(=O)c3ccc(C#N)cn3)cs2)C[C@@H](C(F)(F)F)OC(N)=N1` [Example 35, N-(5-((4S,6S)-2-Amino-4-methyl-6-(trifluoromethyl)-5,6-dihydro-4H-1,3-oxazin-4-yl)thiophen-3-yl)-5-cyanopicolinamide] was run?
A: Its pIC50 is 7.06.

Q: With `C[C@@]1(c2cc(NC3CCc4cc(C#N)cnc43)ccc2F)C[C@@H](C(F)(F)F)OC(N)=N1` (stereo partly drawn) [Example 36, 7-(3-((4S,6S)-2-Amino-4-methyl-6-(trifluoromethyl)-5,6-dihydro-4H-1,3-oxazin-4-yl)-4-fluorophenylamino)-6,7-dihydro-5H-cyclopenta[b]pyridine-3-carbonitrile] as the compound, how does the pIC50 read?
A: Its pIC50 is 7.48.

Q: `C[C@@]1(c2cccc(NC(=O)c3ccc(C#N)cn3)c2F)C[C@@H](C(F)(F)F)OC(N)=N1` [Example 37, N-(3-((4S,6S)-2-Amino-4-methyl-6-(trifluoromethyl)-5,6-dihydro-4H-1,3-oxazin-4-yl)-2-fluorophenyl)-5-cyanopicolinamide] was tested. Which pIC50 did it give?
A: Its pIC50 is 6.85.

Q: With `C[C@@]1(c2c(F)ccc(NC(=O)c3ccc(C#N)cn3)c2F)C[C@@H](C(F)(F)F)OC(N)=N1` [Example 38, N-(3-((4S,6S)-2-amino-4-methyl-6-(trifluoromethyl)-5,6-dihydro-4H-1,3-oxazin-4-yl)-2,4-difluorophenyl)-5-cyanopicolinamide] as the compound, how does the pIC50 read?
A: Its pIC50 is 7.89.

Q: `C[C@@]1(c2cc(-c3nc4ccc(Cl)cc4o3)ccc2F)C[C@@H](C(F)(F)F)OC(N)=N1` [Example 39, (4S,6S)-4-(5-(6-Chlorobenzo[d]oxazol-2-yl)-2-fluorophenyl)-4-methyl-6-(trifluoromethyl)-5,6-dihydro-4H-1,3-oxazin-2-amine] was tested. Which pIC50 did it give?
A: The pIC50 was 6.28.

Q: With `C[C@@]1(c2cc(-c3nnc(-c4ccc(Cl)cc4)o3)ccc2F)C[C@@H](C(F)(F)F)OC(N)=N1` [Example 40, (4S,6S)-4-(5-(5-(4-Chlorophenyl)-1,3,4-oxadiazol-2-yl)-2-fluorophenyl)-4-methyl-6-(trifluoromethyl)-5,6-dihydro-4H-1,3-oxazin-2-amine] as the compound, how does the pIC50 read?
A: Its pIC50 is < 4.40.
